In US12352763B2, “Method of determining autophagosome flux and uses thereof” (Stellenbosch University, priority 2016, dated 2025):

How the values were obtained:
MEF cells = assay: Autophagosome flux assay: live-cell z-stack fluorescence imaging of GFP-LC3 / LysoTracker Red cells, with fusion blocked by 400 nM bafilomycin A1; type: cell-based, mouse
Experimental: For the autophagosomal pool size analysis, the autophagosomes and the lysosomes were visualized and labelled specifically. The autophagolysosomal entities were identified by co-localization analysis. Stably transfected green fluorescent protein-LC3 (GFP-LC3) cells were treated with the lysosome-labelling marker, LysoTracker® Red (Life Technologies, #L-7528) in order to visualize the autophagosomes, the lysosomes and the autophagolysosomes. MEF cells were seeded onto a sterile cover-slip patterned with large fibronectin discs (CYTOO, #10-003-10) in a CYTOO chamber single well plate. Cells were seeded at a density of 2×10^4 cells and incubated for 30 minutes. Thereafter, the chamber was rinsed several times using DMEM until all adherent cells in the non-patterned regions were washed off. The cells were maintained for 2 hours prior to the experiment in DMEM, containing 75 nM LysoTracker Red, in a humidified atmosphere in the presence of 5% CO2 at […]. The chamber plate was then enclosed in an Olympus IX-81 stage of an inverted fluorescence microscope in the presence of 5% CO2 for the duration of the experiment. Serum starvation was avoided, since it would upregulate autophagosome flux and mask the cell-inherent basal autophagosome flux.
Z-stack image acquisition was performed in order to acquire the complete autophagosomal pool size. An Olympus IX-81 coupled to an MT-20 and xenon burner 150 W and an F-view camera were employed. Temperature and 5% CO2 were controlled. For live cell acquisition, single cell acquisition was performed using automated stage coordinate settings. CellR-based software (Olympus, Soft Imaging) was employed. Images were processed using Cell R imaging software and exported to the modified (for high throughput) automated counting software (ImageJ with WatershedCounting3D plug in (Gniadek et al., 2007)), to count the green and red puncta using voxel dimension 0.08 for both x and y as the search parameters. Puncta count and morphometric analysis were performed using the Watershed Counting3D plugin of ImageJ. Images were converted to RGB colour format and processed by WatershedCounting3D. Puncta count and surface area were determined for each colour puncta from the output file generated. Equations 1, 2 and 3 described above were used to determine the radius, volume and total surface area of spheres.
In order to assess the basal autophagosome flux in steady state, cells were treated with 400 nM bafilomycin A1 (FIG. 4). The autophagosomal pool size was monitored for two hours post-inhibition and images were acquired at 30 minute intervals. The basal flux, Jbasal, was determined by allowing the autophagic system to reach a steady state under basal conditions (basal flux is the initial slope of the progress curve at the point of inhibition of fusion). Multiple cells (n=10) were assessed simultaneously using a stage control. The transition time, τ, was calculated from the ratio τ=nA/J of the autophagosome pool size and autophagosome flux, and indicated the turnover time of the autophagosome pool at steady state.
The autophagosome flux J, the autophagosomal pool size nA, and the autophagosomal transition time τ were determined (FIG. 6 and Table 1).

[1] = system: mouse embryonic fibroblast (MEF) cells; assay: Determining complete fusion inhibition: saturating inhibitor concentration, Western blot; type: cell-based
From the text: FIG. 2 is a Western blot analysis and corresponding graphs illustrating the results of the study to determine the saturating inhibitor concentration of bafilomycin A1 required to fully block autophagosomal/lysosomal fusion.
This saturating concentration should be determined prior to performing the method. […] Although this can be performed through Western blot analysis, a more precise technique is to determine the change over time of the autophagosome pool size after inhibition of fusion using the method of the present invention (FIG. 2). Thus, the change in pool size before and shortly after inhibition of fusion is determined and the rate of change (typically expressed over 1 hour) is calculated.
Bafilomycin A1 was selected as the inhibitor in this example because it is the most commonly used drug in the field.

LC3, p62 and pmTOR = assay: Western blot analysis probing for LC3, p62 and pmTOR (validation); type: cell-based; settings: treatment with bafilomycin
Experimental: FIG. 8 is a Western blot analysis probing for LC3, p62 and pmTOR. […] This method, however, cannot measure dynamic changes and vesicular pool size required to measure autophagosome flux. […] Western blot analysis and TEM was performed in the presence and absence of bafilomycin A1. […] Therefore, autophagosome flux cannot be accurately assessed. It allows the detection of the respective protein, LC3 II, from a whole cell population, without linking the protein band signal to single cell pool sizes of entities. Moreover, the nature of Western blot analysis omits any measurements of dynamic changes (FIG. 8).

[2] = 25 nM rapamycin versus basal, increase

CO[C@H]1C[C@@H]2CC[C@@H](C)[C@@](O)(O2)C(=O)C(=O)N2CCCC[C@H]2C(=O)O[C@H]([C@H](C)C[C@@H]2CC[C@@H](O)[C@H](OC)C2)CC(=O)[C@H](C)/C=C(\C)[C@@H](O)[C@@H](OC)C(=O)[C@H](C)C[C@H](C)/C=C/C=C/C=C/1C [rapamycin] was tested, and the “Transition time, % change (% Δ)” value (MEF cells; 25 nM rapamycin versus basal, decrease) was 69.8%, the “Autophagosome Pool size nA, % change (% Δ)” value (MEF cells; [2]) was 22.4% and the “Autophagosome flux J, % change (% Δ)” value (MEF cells; [2]) was 315%. For the same compound, the “Autophagolysosomal transition time, τAL” value (MEF cells; induced with rapamycin) was 2.4 h, the “Autophagosomal membrane flux, Jmem” value (MEF cells; induced with rapamycin) was 8268 μm^2/hr/cell and the “Cytoplasmic volume consumption rate, Jvol” value (MEF cells; induced with rapamycin) was 495 fL/hr/cell. For the same compound, the “Autophagosome flux, J” value (MEF cells; induced with rapamycin (25 nM)) was 105.4 A/hr/cell, the “Average volume of an autophagosome” value (MEF cells; induced with rapamycin (25 nM)) was 4.7 fL and the “Number of autophagolysosomes, nAL” value (MEF cells; induced with rapamycin (25 nM)) was 251.2 AL/cell. For the same compound, the “Number of autophagosomes, nA” value (MEF cells; induced with rapamycin (25 nM)) was 16.7 A/cell, the “Autophagosomal transition time, τA” value (MEF cells; induced with rapamycin, τ=nA/J) was 0.16 h and the “Autophagosome Pool size nA” value (MEF cells; modulator rapamycin (Table 2)) was 16.4 No. of autophagosomes. The “Autophagosome flux, J” value (MEF cells; modulator rapamycin (Table 2)) was 105.4 No. of autophagosomes/cell*hr^1, the Transition time (MEF cells; modulator rapamycin (Table 2)) was 0.16 h and the “Autophagosome Pool size nA, net change (Δ)” value (MEF cells; rapamycin versus basal) was 3 No. of autophagosomes. The “Autophagosome flux J, net change (Δ)” value (MEF cells; rapamycin versus basal) was 80 No. of autophagosomes/cell*hr^1 and the “Transition time, net change (Δ)” value (MEF cells; rapamycin versus basal, decrease) was 0.37 h.

For CO/C1=C\C(C)=C\[C@@H](C)[C@@H](O)[C@@H](C)C/C(C)=C/C=C/[C@H](OC)[C@@H]([C@@H](C)[C@@H](O)[C@H](C)[C@@]2(O)C[C@@H](O)[C@H](C)[C@@H](C(C)C)O2)OC1=O [Bafilomycin A1], the “Inhibition of autophagosomal-lysosomal fusion” value ([1]; 400 nM for 2 hours) was “complete inhibition”, the Cell toxicity ([1]; concentration of 800 nM) was “cell toxicity was observed” and the “LC3II and p62 bands” value (LC3, p62 and pmTOR) was “increases”.
